# Measurements: US20130197043A1, “USE OF THE FETAL REPROGRAMMING OF A PPAR AGONIST” (SNU R&DB FOUNDATION, priority 2010, published 2013)
# Tests used:
# [1] = test system: gene expression in gastrocnemius muscle; test: Gene expression analysis using microarray; type: in vivo, mice
# Text: As for an animal, the gastrocnemius muscle of 3-week old mice fetal-reprogrammed by PPAR δ agonist (CMDD1111) was resected, and then total RNA was extracted by using the Trizol reagent (Gibco). The isolated RNA was subjected to quantitative and purity verification processes, and then used for gene expression analysis using a Mouse 430 2.0 (Affimatrix) chip.
# [2] = test system: gene expression in muscle; test: Gene expression analysis using real-time PCR in fetal-reprogrammed mice; type: in vivo
# Experimental: A gene expression analysis experiment using the real-time PCR was conducted to further verify Miroarray analysis results. As for mouse group subjected to fetal reprogramming by administration of PPAR δ agonist (CMDD1111) during a muscular development period, there were increases in expression of core regulators for fatty acid oxidation and thermogenesis, such as carnitine palmitoyl transferase 1a (CPT-1a: 1.5 fold), uncoupling protein 3 (UCP3: 4.2 fold), acyl Co-A synthetase (ACSL: 1.4 fold), acyl Co-A dehydrogenase (ACAD10: 2.0 fold), and NDUFA12 (1.3 fold). In addition, there was a remarkable increase in expression of Adiponectin (ADIPOQ: 2.5 fold), which are commonly expressed in the slow muscle fiber and has been known to increase fatty acid oxidation to improve diabetes (FIG. 9).
# [3] = test system: mice subjected to fetal reprogramming; test: Respiratory exchange ratio (RER) measurement using Oximax; type: in vivo
# Experimental: RER is a ratio of the amount of CO2 exhaled to O2 inhaled in one breath. The RER is 1.0 when carbohydrate is mainly used for energy production, while the RER is 0.7 when fat is used. […] The RER experiment using Oximax (Columbus) was conducted in order to evaluate whether or not this increase in slow muscle fiber generation actually influenced mouse energy metabolism. […] Since the RER has a periodic value depending on the time, the RER difference between the two groups was more clearly compared by using AUL, in order to check the RER difference between the two groups. The average AUL value of the control group was 107.4±1.4. Whereas, the average AUL value of the mouse group subjected to fetal reprogramming was 102.2±2.8, which was lower than that of the mouse control group (FIG. 17).
# The present inventors checked a difference in lipid oxidation capacity between the two groups by using the following equations.
# Carbohydrate oxidation=(4.51·RER−3.18)·VO2
# Lipid oxidation=1.67·(1−RER)·VO2
# As the calculation result, it may be seen that the mouse group to which PPAR δ agonist (CMDD1111) was administered during the fetal programming period used more lipid by average 44% (6.6 mg/kgmin vs. 9.5 mg/kgmin) but less carbohydrate by 20% (48 mg/kgmin vs. 38 mg/kgmin), as compared with the control group to which vehicle was administered. Therefore, it may be seen that the mice in which PPAR δ was activated during the fetal programming period had increased slow muscle fiber generation and thus increased the lipometabolism.
# [4] = test system: mice subjected to fetal reprogramming; test: Glucose tolerance test (GTT) of fetal-reprogrammed mice after high-fat feedstuff; type: in vivo; conditions: GTT after 17 weeks high-fat feedstuff
# Experimental: The present researchers conducted the glucose tolerance test (GTT) after the mice were fed with high-fat feedstuff for 17 weeks to induce diabetes. The experiment was conducted following the method proposed by Kelly, and challenged with over-night fasting in order to confirm the role thereof in the muscle. Glucose ([…]) was administered by using intraperitoneal injection, and then the blood glucose level change was measured for 2 hours. As a result, the fasting blood glucose level was lower, the maximum blood glucose concentration was lower, and the glucose clearance time was shorter in the mice of the administration group as compared with the mice of the control group (FIG. 19). At the same time, the insulin tolerance test was conducted (FIG. 20). To sum the above results up, it may be seen that animals subjected to fetal reprogramming by PPAR δ activation enhanced endurance due to an increase in slow muscle fibers and prevented and suppressed the occurrence of obesity and diabetes due to high-fat diet.
# [5] = test system: leptin receptor-deficient mouse (db/db); test: Glucose tolerance test in type II diabetes mouse model after fetal reprogramming; type: in vivo; conditions: homo type male db/db fetuses; mother dosed only during lactation
# Experimental: The present researchers have checked the fetal reprogramming effect of PPAR δ by using a leptin receptor-deficient mouse (db/db). After hetero type female and male mice were bred, the PPAR δ agonist (CMDD1111) was administered to the female mice only during the lactation period. The glucose tolerance test (GTT) was conducted using only homo type male fetuses having induced diabetes through gene analysis and blood glucose analysis.
# [6] = microarray, gastrocnemius muscle, 3-week old mice
# [7] = fetal-reprogrammed mouse muscle
compound,measurement,setting,value
Cc1cc(SC(Cc2ccccc2)c2sc(-c3ccc(C(F)(F)F)cc3)nc2C)ccc1OCC(=O)O (stereo not shown) [CMDD1111],"expressions of genes commonly expressed in the heart muscle (RYR2, ATP2A2, PLN)",[1]; fetal-reprogrammed mouse group,remarkably increased
same,"expression of ATPase, Ca2+ transporting (SERCA)",[1]; [6],1.4 fold
same,expression of CamIIb,[1]; [6],1.4 fold
same,expression of CamIId,[1]; [6],1.8 fold
same,expression of HDAC4 (decrease),[1]; [6],−1.5 fold
same,expression of Mef2a,[1]; [6],1.4 fold
same,expression of PPARγ coactivator 1a,[1]; [6],1.7 folds
same,expression of Troponin I,[1]; [6],3.2 fold
same,expression of Troponin T2,[1]; [6],2.3 fold
same,expression of acyl CoA dehydrogenase (ACAD),[1]; [6],1.7 fold
same,expression of acyl CoA synthetase (ACSL),[1]; [6],1.5 fold
same,expression of carnitine palmitoyl transferase 1a (CPT-1a),[1]; [6],1.4 fold
same,expression of cytochrome 8a (COX8A),[1]; [6],1.7 fold
same,expression of myosin binding protein C3 (MYBPC3),[1]; [6],2.8 fold
same,expression of myosin heavy chain 6 (Myh6),[1]; [6],2.7 fold
same,expression of myosin light chain 7 (Myl7),[1]; [6],2.9 fold
same,expression of pantothenate kinase 1 (PANK1),[1]; [6],2.4 fold
same,expression of phospholamban (PLN),[1]; [6],2.8 fold
same,expression of ryanodine receptor 2 (RYR2),[1]; [6],2.8 fold
same,expression of ryanodine receptor 3 (RYR3),[1]; [6],2.0 fold
same,expression of ubiquinone,[1]; [6],2.0 fold
same,expression of uncoupling protein 2 (UCP2),[1]; [6],1.5 fold
same,expression of uncoupling protein 3 (UCP3),[1]; [6],2.3 fold
same,expression of Adiponectin (ADIPOQ),[2]; [7],2.5 fold
same,expression of CaMKII B,[2]; [7],4.5 fold
same,expression of CaMKII D,[2]; [7],3.2 fold
same,"expression of HDAC4, decreased by",[2]; [7],0.6 fold
same,expression of NDUFA12,[2]; [7],1.3 fold
same,expression of PGC-1α,[2]; [7],1.6 fold
same,expression of acyl Co-A dehydrogenase (ACAD10),[2]; [7],2.0 fold
same,expression of acyl Co-A synthetase (ACSL),[2]; [7],1.4 fold
same,expression of carnitine palmitoyl transferase 1a (CPT-1a),[2]; [7],1.5 fold
same,expression of uncoupling protein 3 (UCP3),[2]; [7],4.2 fold
same,expression of ATP2A2,[2]; versus control group,2.2 fold
same,expression of MYH6,[2]; versus control group,6.8 fold
same,expression of My17,[2]; versus control group,4.8 fold
same,expression of RYR2,[2]; versus control group,2.2 fold
same,expression of RYR3,[2]; versus control group,3.6 fold
same,expression of TNNI3,[2]; versus control group,5.8 fold
same,expression of phospholamban,[2]; versus control group,3.2 fold
same,carbohydrate oxidation,[3]; calculated from RER and VO2,38 mg/kgmin
same,less carbohydrate used versus vehicle control,[3]; calculated from RER and VO2,20%
same,lipid oxidation,[3]; calculated from RER and VO2,9.5 mg/kgmin
same,more lipid used versus vehicle control,[3]; calculated from RER and VO2,44%
same,average AUL value of RER,[3]; mouse group subjected to fetal reprogramming,102.2±2.8
same,fasting blood glucose level versus control,[4],lower
same,glucose clearance time versus control,[4],shorter
same,maximum blood glucose concentration versus control,[4],lower
same,glucose tolerance (GTT),[5],improved
